From patent publication US10857110B2, “Antibacterial compounds” (CONSEJO NACIONAL DE INVESTIGACIONES CIENTÍFICAS Y TÉCNICAS …, priority 2016, dated 2020)
≈ marks a conversion by molar mass, not a printed value.

Assays:
Experiment in all cases: MIC/MBC antibiotic sensitivity (CLSI)
[1] = tested on: Achromobacter xylosaxidans (HNA001); format: cell-based, Achromobacter xylosoxidans
Protocol: (§1) The new compounds of the invention were synthesized following the general method of preparation (Tetrahedron, 2001, 57, 1671-1675), from the reaction between an intermediary compound of the acyl thiourea and HgCl2 in presence of trimethylamine. The products were adequately characterized regarding its chemistry. The antibacterial activity of the new compounds was assayed against two Gram-positive reference strains: Staphylococcus aureus (ATCC6538) and Bacillus cereus (ATCC10876), a fermenting Gram-negative strain: Escherichia coli (ATCC25922), and 26 non-fermenting Gram-negative isolates, including 3 reference strains: Pseudomonas aeruginosa (PAO1), Bordetella bronchiseptica (9.73H+), and Inquilinus limosus (DSM16000), and 23 isolates recovered from patients suffering from cystic fibrosis, including one Achromobacter xylosoxidans isolate, and 22 isolates belonging to the Burkholderia cepacia complex. The later were selected because they presented resistance to a high number of antimicrobial compounds, among a panel of 125 clinical isolates previously analyzed for its resistance against 17 antimicrobial compounds (1,2). The antibiotic sensitivity studies were performed by applying two quantitative methods which allow to determine the minimum inhibitory concentration (MIC) and the minimum bactericidal concentration (MBC).
(§2) The compounds obtained in Examples 1 and 2 were assayed against 23 isolates recovered from the sputum of patients suffering from cystic fibrosis being treated at the Sor Maria Ludovica Children Hospital (La Plata, Buenos Aires, Argentina). Nineteen of these isolates were selected for being highly resistant to most of the antimicrobial agents of clinical use from a panel of 125 isolates previously characterized in Martina et al. (1). Reference strains were also included: Gram (+) bacteria: B. cereus and S. aureus, fermenting Gram (−) bacteria: E. coli, and non-fermenting Gram (−) bacteria: Inquilinus limosus (DSM16000), B. bronchiseptica, and Pseudomonas aeruginosa (PAO1). The antibiotic sensitivity studies were performed applying two quantitative methods which allow to determine the minimum inhibitory concentration (MIC) and the minimum bactericidal concentration (MBC) according to the criteria established by the Clinical and Laboratory Standards Institute (CLSI) (4). For comparative purposes, three antibiotics commonly used in the treatment of pulmonary infections in cystic fibrosis patients were included in the study: tobramycin, ceftazidime and meropenem.

[2] = tested on: Burkholderia cenocepacia (CBC 035); format: cell-based
Protocol: as §1, §2

B. contaminans (HNBC001) = format: cell-based; conditions: Meropenem, CLSI criteria, read-out: MIC (R/I/S category)
Protocol: as §1, §2

[3] = tested on: Burkholderia cenocepacia (CBC 029); format: cell-based; conditions: Burkholderia cenocepacia; Meropenem, CLSI criteria; B. cenocepacia (CBC 029); read-out: MIC (R/I/S category)
Protocol: as §1, §2

[4] = tested on: Bacillus cereus (ATCC10876); format: cell-based
Protocol: as §1, §2

[5] = tested on: Burkholderia cenocepacia (CBC 024); format: cell-based; conditions: Burkholderia cenocepacia; Meropenem, CLSI criteria; B. cenocepacia (CBC 024); read-out: MIC (R/I/S category)
Protocol: as §1, §2

[6] = tested on: Staphylococcus aureus (ATCC6538); format: cell-based; conditions: Staphylococcus aureus, S. aureus (ATCC6538)
Protocol: as §1, §2

[7] = tested on: Burkholderia cenocepacia (CBC 023); format: cell-based; conditions: Burkholderia cenocepacia; Meropenem, CLSI criteria; B. cenocepacia (CBC 023); read-out: MIC (R/I/S category)
Protocol: as §1, §2

[8] = tested on: Burkholderia multivorans (CBC 015); format: cell-based
Protocol: as §1, §2

[9] = tested on: Burkholderia seminalis (CBC 042); format: cell-based; conditions: Burkholderia seminalis; Meropenem, CLSI criteria; B. seminalis (CBC 042); read-out: MIC (R/I/S category)
Protocol: as §1, §2

[10] = tested on: Burkholderia multivorans (CBC 022); format: cell-based
Protocol: as §1, §2

[11] = tested on: Burkholderia cenocepacia (CBC 032); format: cell-based; conditions: Burkholderia cenocepacia; Meropenem, CLSI criteria; B. cenocepacia (CBC 032); read-out: MIC (R/I/S category)
Protocol: as §1, §2

[12] = tested on: Burkholderia seminalis (CBC 040); format: cell-based; conditions: Burkholderia seminalis; Meropenem, CLSI criteria; B. seminalis (CBC 040); read-out: MIC (R/I/S category)
Protocol: as §1, §2

[13] = tested on: Escherichia coli (ATCC25922); format: cell-based; conditions: Escherichia coli, E. coli (ATCC25922)
Protocol: as §1, §2

[14] = tested on: Bordetella bronchiseptica (9.73H+); format: cell-based; conditions: B. bronchiseptica (9.73H+)
Protocol: as §1, §2

[15] = tested on: Burkholderia cenocepacia (HE001); format: cell-based; conditions: Burkholderia cenocepacia; Meropenem, CLSI criteria; B. cenocepacia (HE001); read-out: MIC (R/I/S category)
Protocol: as §1, §2

[16] = tested on: Inquilinus limosus (DSM16000); format: cell-based
Protocol: as §1, §2

[17] = tested on: Burkholderia cenocepacia (CBC 031); format: cell-based; conditions: Burkholderia cenocepacia; Meropenem, CLSI criteria; B. cenocepacia (CBC 031); read-out: MIC (R/I/S category)
Protocol: as §1, §2

[18] = tested on: Burkholderia multivorans (CBC 020); format: cell-based
Protocol: as §1, §2

[19] = tested on: Burkholderia cepacia (CBC 011); format: cell-based
Protocol: as §1, §2

[20] = tested on: Burkholderia cepacia (CBC 010); format: cell-based
Protocol: as §1, §2

[21] = tested on: Burkholderia multivorans (CBC 021); format: cell-based
Protocol: as §1, §2

[22] = tested on: Burkholderia multivorans (CBC 019); format: cell-based
Protocol: as §1, §2

[23] = tested on: Burkholderia multivorans (CBC 018); format: cell-based
Protocol: as §1, §2

C[C@@H](O)[C@H]1C(=O)N2C(C(=O)O)=C(S[C@@H]3CN[C@H](C(=O)N(C)C)C3)[C@H](C)[C@H]12 [Meropenem, meropenem]
MBC ([1]; Achromobacter xylosaxidans (HNA001)): 7.81 µg/mL (≈ 20.4 µM)
MIC ([1]; Achromobacter, Meropenem, CLSI criteria, A. xylosaxidans (HNA001), read-out: MIC (R/I/S category)): < 4 µg/mL
MBC ([2]; Burkholderia cenocepacia (CBC 035), read-out: MBC): 15.6 µg/mL (≈ 40.7 µM)
MIC ([2]; Burkholderia cenocepacia, Meropenem, CLSI criteria, B. cenocepacia (CBC 035), read-out: MIC (R/I/S category)): < 4 µg/mL
MIC (B. contaminans (HNBC001)): > 16 µg/mL
MIC [3]: > 16 µg/mL
MBC ([4]; read-out: MBC): < 0.48 µg/mL
MIC ([4]; read-out: MIC): < 0.48 µg/mL
MIC [5]: > 16 µg/mL
MBC ([6]; read-out: MBC): < 0.48 µg/mL
MIC ([6]; read-out: MIC): < 0.48 µg/mL
MIC [7]: > 16 µg/mL
MBC ([8]; Burkholderia multivorans (CBC 015), read-out: MBC): 3.9 µg/mL (≈ 10.2 µM)
MIC ([8]; Burkholderia multivorans, Meropenem, CLSI criteria, B. multivorans (CBC 015), read-out: MIC (R/I/S category)): < 4 µg/mL
MIC [9]: > 16 µg/mL
MBC ([10]; Burkholderia multivorans (CBC 022)): 7.81 µg/mL (≈ 20.4 µM)
MIC ([10]; Burkholderia multivorans, Meropenem, CLSI criteria, B. multivorans (CBC 022), read-out: MIC (R/I/S category)): < 4 µg/mL
MIC [11]: > 16 µg/mL
MIC [12]: > 16 µg/mL
MBC ([13]; read-out: MBC): < 0.48 µg/mL
MIC ([13]; read-out: MIC): < 0.48 µg/mL
MBC ([14]; read-out: MBC): < 0.48 µg/mL
MIC ([14]; read-out: MIC): < 0.48 µg/mL
MIC [15]: > 16 µg/mL
MBC [16]: < 0.48 µg/mL
MIC ([16]; read-out: MIC): < 0.48 µg/mL
MIC [17]: > 16 µg/mL
MBC ([18]; Burkholderia multivorans (CBC 020)): 31.2 µg/mL (≈ 81.5 µM)
MIC ([18]; Burkholderia multivorans, Meropenem, CLSI criteria, B. multivorans (CBC 020), read-out: MIC (R/I/S category)): < 4 µg/mL
MBC ([19]; Burkholderia cepacia (CBC 011)): > 62.5 µg/mL
MIC ([19]; Burkholderia cepacia, Meropenem, CLSI criteria, B. cepacia (CBC 011), read-out: MIC (R/I/S category)): < 4 µg/mL
MBC ([20]; Burkholderia cepacia (CBC 010)): 3.9 µg/mL (≈ 10.2 µM)
MIC ([20]; Burkholderia cepacia, Meropenem, CLSI criteria, B. cepacia (CBC 010), read-out: MIC (R/I/S category)): < 4 µg/mL
MBC ([21]; Burkholderia multivorans (CBC 021)): 7.81 µg/mL (≈ 20.4 µM)
MIC ([21]; Burkholderia multivorans, Meropenem, CLSI criteria, B. multivorans (CBC 021), read-out: MIC (R/I/S category)): < 4 µg/mL
MBC ([22]; Burkholderia multivorans (CBC 019)): 7.81 µg/mL (≈ 20.4 µM)
MIC ([22]; Burkholderia multivorans, Meropenem, CLSI criteria, B. multivorans (CBC 019), read-out: MIC (R/I/S category)): < 4 µg/mL
MBC ([23]; Burkholderia multivorans (CBC 018), read-out: MBC): 3.9 µg/mL (≈ 10.2 µM)
MIC ([23]; Burkholderia multivorans, Meropenem, CLSI criteria, B. multivorans (CBC 018), read-out: MIC (R/I/S category)): < 4 µg/mL
